Among the data in patent publication US10537558B2 (Bantam Pharmaceutical, LLC, priority 2015, dated 2020) are EC50 values, retold here.

pEC50: −log10 of the molar value. Some results are limits rather than exact numbers.

This assay concerns BJAB cells. In words: BJAB cell proliferation (Cell Titer Glo). Type of assay: cell-based. The conditions noted are these: Homo sapiens, read-out: EC50. Here is the method:
Cells were seeded in white Corning Costar 96-well assay plates at 2500 cells/well in 50 μL of medium. Serial dilutions of test compounds were made in cell culture medium/FBS+0.2% DMSO, and transferred to assay plates in a volume of 50 μL (DMSO at 0.1% final). Plates were maintained at 37° C. for approximately 72 hours. The effect of compounds on cell proliferation was evaluated using the Cell Titer Glo reagent (Promega), according to the manufacturer's instructions. Briefly, 100 μL of reagent was added per well, and after a 10 minute incubation luminescence values were determined on a plate reader (Tecan F200PRO). The percent of luminescence signal relative to untreated controls was calculated for each compound concentration, and EC50 values were determined from dose response data by non-linear regression analysis using Prism (GraphPad). The mTor inhibitor Torin1 (Liu, et al. (2010) J. Med. Chem. 53, 7146.) was used as a control. The data are summarized in the compound table provided above.
A general note: ATP-based viability assays read luminescence as a measure of living cells.
Regarding `Cc1nn(-c2nc(-c3cccnc3)c(SC(C)C)s2)c(C(=O)O)c1-c1cc(Cl)cc(Cl)c1` [Compound 30, 4-(3,5-dichlorophenyl)-1-(5-(isopropylthio)-4-(pyridin-3-yl)thiazol-2-yl)-3-methyl-1H-pyrazole-5-carboxylic acid], the pEC50 is less than 4.60. With `Cc1nn(-c2nc(-c3ccc4nccn4c3)c(SC(C)C)s2)c(C(=O)O)c1-c1cc(Cl)cc(Cl)c1` [Compound 31, 4-(3,5-dichlorophenyl)-1-(4-(imidazo[1,2-a]pyridin-6-yl)-5-(isopropylthio)thiazol-2-yl)-3-methyl-1H-pyrazole-5-carboxylic acid], the pEC50 was less than 4.60. On to `CCC(C)Sc1sc(-n2nc(C)c(-c3cc(Cl)cc(Cl)c3)c2C(=O)OC)nc1-c1ccc(Cl)c(Cl)c1` (stereo not drawn) [Compound 32a], for which the negative-log EC50 (pEC50) is less than 4.60.

In the case of `CCC(C)Sc1sc(-n2nc(C)c(-c3cc(Cl)cc(Cl)c3)c2C(=O)O)nc1-c1ccc(Cl)c(Cl)c1` (stereo not drawn) [Compound 32b], the pEC50 is 5.30 to 6.00. In the case of `CCC(C)Sc1sc(-n2nc(C)c(-c3cc(C)nc(C)c3)c2C(=O)OC)nc1-c1ccc(Cl)c(Cl)c1` (stereo not drawn) [Compound 33a], the pEC50 was less than 4.60.

`CCC(C)Sc1sc(-n2nc(C)c(-c3cc(C)nc(C)c3)c2C(=O)O)nc1-c1ccc(Cl)c(Cl)c1` (stereo not drawn) [Compound 33b]: the negative-log EC50 (pEC50) is greater than 6.00. The same measure for `COc1ccccc1-c1nc(-n2nc(C)c(-c3cc(C)nc(C)c3)c2C(=O)O)sc1SC(C)C` [Compound 34, 4-(2,6-dimethylpyridin-4-yl)-1-(5-(isopropylthio)-4-(2-methoxyphenyl)thiazol-2-yl)-3-methyl-1H-pyrazole-5-carboxylic acid]: 5.00 to 5.30; for `COc1cccc(-c2nc(-n3nc(C)c(-c4cc(C)nc(C)c4)c3C(=O)O)sc2SC(C)C)c1` [Compound 35, 4-(2,6-dimethylpyridin-4-yl)-1-(5-(isopropylthio)-4-(3-methoxyphenyl)thiazol-2-yl)-3-methyl-1H-pyrazole-5-carboxylic Acid]: 5.30 to 6.00; for `COc1ccc(-c2nc(-n3nc(C)c(-c4cc(C)nc(C)c4)c3C(=O)O)sc2SC(C)C)cc1` [Compound 36, 4-(2,6-dimethylpyridin-4-yl)-1-(5-(isopropylthio)-4-(4-methoxyphenyl)thiazol-2-yl)-3-methyl-1H-pyrazole-5-carboxylic acid]: 4.60 to 5.00. Take `Cc1cc(-c2c(C)nn(-c3nc(-c4ccccc4)c(SC(C)C)s3)c2C(=O)O)cc(C)n1` [Compound 37, 4-(2,6-dimethylpyridin-4-yl)-1-(5-(isopropylthio)-4-phenylthiazol-2-yl)-3-methyl-1H-pyrazole-5-carboxylic Acid]: the pEC50 is 5.00 to 5.30. In the case of `Cc1nn(-c2nc(-c3ccc(Cl)c(Cl)c3)c(SC(C)C)s2)c(C(=O)O)c1-c1c(CO)noc1C` [Compound 38, 1-(4-(3,4-dichlorophenyl)-5-(isopropylthio)thiazol-2-yl)-4-(3-(hydroxymethyl)-5-methylisoxazol-4-yl)-3-methyl-1H-pyrazole-5-carboxylic acid], the negative logarithm of the EC50 (pEC50) was less than 4.30. As for `COCc1noc(C)c1-c1c(C)nn(-c2nc(-c3ccc(Cl)c(Cl)c3)c(SC(C)C)s2)c1C(=O)O` [Compound 39, 1-(4-(3,4-dichlorophenyl)-5-(isopropylthio)thiazol-2-yl)-4-(3-(methoxymethyl)-5-methylisoxazol-4-yl)-3-methyl-1H-pyrazole-5-carboxylic acid], the figure is 4.60 to 5.00; as for `Cc1ccc(-c2nc(-n3nc(C)c(-c4cc(C)nc(C)c4)c3C(=O)O)sc2SC(C)C)cc1` [Compound 40, 4-(2,6-dimethylpyridin-4-yl)-1-(5-(isopropylthio)-4-p-tolylthiazol-2-yl)-3-methyl-1H-pyrazole-5-carboxylic acid], 5.30 to 6.00; as for `Cc1cccc(-c2nc(-n3nc(C)c(-c4cc(C)nc(C)c4)c3C(=O)O)sc2SC(C)C)c1` [Compound 41, 4-(2,6-dimethylpyridin-4-yl)-1-(5-(isopropylthio)-4-m-tolylthiazol-2-yl)-3-methyl-1H-pyrazole-5-carboxylic Acid], 5.00 to 5.30.

As for `Cc1cc(-c2c(C)nn(-c3nc(-c4ccccc4C)c(SC(C)C)s3)c2C(=O)O)cc(C)n1` [Compound 42, 4-(2,6-dimethylpyridin-4-yl)-1-(5-(isopropylthio)-4-o-tolylthiazol-2-yl)-3-methyl-1H-pyrazole-5-carboxylic acid], the negative-log EC50 (pEC50) was 5.30 to 6.00. As for `Cc1nn(-c2nc(-c3ccc(Cl)c(Cl)c3)c(SC(C)C)s2)c(C(=O)O)c1-c1cccnc1` [Compound 44, 1-(4-(3,4-dichlorophenyl)-5-(isopropylthio)thiazol-2-yl)-3-methyl-4-(pyridin-3-yl)-1H-pyrazole-5-carboxylic acid], the figure is 4.60 to 5.00. As for `CSc1sc(-n2nc(C)c(Cc3ccccc3[N+](=O)[O-])c2C(=O)O)nc1-c1ccc(Cl)c(Cl)c1` [Compound 45, 1-(4-(3,4-dichlorophenyl)-5-(methylthio)thiazol-2-yl)-3-methyl-4-(2-nitrobenzyl)-1H-pyrazole-5-carboxylic acid], the figure is 4.30 to 4.60.

`Cc1nn(-c2nc(-c3ccc(Cl)c(Cl)c3)c(SC(C)C)s2)c(C(=O)O)c1-c1cccc(CO)c1` [Compound 46, 1-(4-(3,4-dichlorophenyl)-5-(isopropylthio)thiazol-2-yl)-4-(3-(hydroxymethyl)phenyl)-3-methyl-1H-pyrazole-5-carboxylic acid]: the negative-log EC50 (pEC50) is 4.60 to 5.00. The same measure for `Cc1nn(-c2nc(-c3ccc(Cl)c(Cl)c3)c(SC(C)C)s2)c(C(=O)O)c1-c1ccncc1` [Compound 47, 1-(4-(3,4-dichlorophenyl)-5-(isopropylthio)thiazol-2-yl)-3-methyl-4-(pyridin-4-yl)-1H-pyrazole-5-carboxylic Acid]: 5.00 to 5.30; for `Cc1nn(-c2nc(-c3ccc(Cl)c(Cl)c3)c(SC(C)C)s2)c(C(=O)O)c1-c1cccc(CN)c1` [Compound 48, 4-(3-(aminomethyl)phenyl)-1-(4-(3,4-dichlorophenyl)-5-(isopropylthio)thiazol-2-yl)-3-methyl-1H-pyrazole-5-carboxylic acid]: 4.30 to 4.60; for `Cc1nn(-c2nc(-c3ccc(Cl)c(Cl)c3)c(SC(C)C)s2)c(C(=O)O)c1-c1ccc(CO)cc1` [Compound 49, 1-(4-(3,4-dichlorophenyl)-5-(isopropylthio)thiazol-2-yl)-4-(4-(hydroxymethyl)phenyl)-3-methyl-1H-pyrazole-5-carboxylic acid]: less than 4.30. Consider `Cc1nn(-c2nc(-c3ccc(Cl)c(Cl)c3)c(SC(C)C)s2)c(C(=O)O)c1-c1ccccc1C(F)(F)F` [Compound 50, 1-(4-(3,4-dichlorophenyl)-5-(isopropylthio)thiazol-2-yl)-3-methyl-4-(2-(trifluoromethyl)phenyl)-1H-pyrazole-5-carboxylic acid], for which the pEC50 is 5.00 to 5.30. Consider `Cc1nn(-c2nc(-c3ccc(Cl)c(Cl)c3)c(SC(C)C)s2)c(C(=O)O)c1-c1cccc(C(F)(F)F)c1` [Compound 51, 1-(4-(3,4-dichlorophenyl)-5-(isopropylthio)thiazol-2-yl)-3-methyl-4-(3-(trifluoromethyl)phenyl)-1H-pyrazole-5-carboxylic Acid], for which the negative logarithm of the EC50 (pEC50) was 5.30 to 6.00. On to `Cc1nn(-c2nc(-c3ccc(Cl)c(Cl)c3)c(SC(C)C)s2)c(C(=O)O)c1-c1ccc(C(F)(F)F)cc1` [Compound 52, 1-(4-(3,4-dichlorophenyl)-5-(isopropylthio)thiazol-2-yl)-3-methyl-4-(4-(trifluoromethyl)phenyl)-1H-pyrazole-5-carboxylic Acid], for which the negative-log EC50 (pEC50) is 4.60 to 5.00. As for `Cc1nn(-c2nc(-c3ccc(Cl)c(Cl)c3)c(SC(C)C)s2)c(C(=O)O)c1C(O)c1ccccc1` (stereo not drawn) [Compound 53, 1-(4-(3,4-dichlorophenyl)-5-(isopropylthio)thiazol-2-yl)-4-(hydroxy(phenyl)methyl)-3-methyl-1H-pyrazole-5-carboxylic Acid], the figure is less than 4.30; as for `Cc1nn(-c2nc(-c3ccc(Cl)c(Cl)c3)c([S+]([O-])C(C)C)s2)c(C(=O)O)c1Cc1ccccc1[N+](=O)[O-]` (stereo not drawn) [Compound 54, 1-(4-(3,4-dichlorophenyl)-5-(isopropylsulfinyl)thiazol-2-yl)-3-methyl-4-(2-nitrobenzyl)-1H-pyrazole-5-carboxylic acid], 4.30 to 4.60. As for `Cc1nn(-c2nc(-c3ccc(Cl)c(Cl)c3)c(S(=O)(=O)C(C)C)s2)c(C(=O)O)c1Cc1ccccc1[N+](=O)[O-]` [Compound 55, 1-(4-(3,4-dichlorophenyl)-5-(isopropylsulfonyl)thiazol-2-yl)-3-methyl-4-(2-nitrobenzyl)-1H-pyrazole-5-carboxylic acid], the figure is 4.60 to 5.00.

For the compound `Cc1nn(-c2nc(-c3ccc(Cl)c(Cl)c3)c(SC(C)C)s2)c(C(=O)O)c1-c1nnc2ccccn12` [Compound 56, 4-([1,2,4]triazolo[4,3-a]pyridin-3-yl)-1-(4-(3,4-dichlorophenyl)-5-(isopropylthio)thiazol-2-yl)-3-methyl-1H-pyrazole-5-carboxylic Acid], the negative logarithm of the EC50 (pEC50) is less than 4.30. As for `Cc1noc(C)c1-c1c(C)nn(-c2nc(-c3ccc(Cl)c(Cl)c3)c(SC(C)C)s2)c1C(=O)O` [Compound 57, 1-(4-(3,4-dichlorophenyl)-5-(isopropylthio)thiazol-2-yl)-4-(3,5-dimethylisoxazol-4-yl)-3-methyl-1H-pyrazole-5-carboxylic acid], the figure is 4.60 to 5.00; as for `Cc1nn(-c2nc(-c3ccc(Cl)c(Cl)c3)c(SC(C)C)s2)c(C(=O)O)c1-c1nc2ccccc2[nH]1` [Compound 58, 4-(1H-benzo[d]imidazol-2-yl)-1-(4-(3,4-dichlorophenyl)-5-(isopropylthio)thiazol-2-yl)-3-methyl-1H-pyrazole-5-carboxylic Acid], 4.30 to 4.60.

For orientation: pEC50 means the EC50 on a negative log10 scale, so that one unit is a factor of ten.
